Laboratory results from PubChem BioAssay (NCI).
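Dose response: 5 concentrations. Exposure: 48 h. Format: 96-well plates. Endpoint: linear interpolation; highest concentration if not reached. Abbreviation: GI50, concentration required for 50% inhibition of growth. TGI is the concentration that stops growth completely.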

Columns and labels:
Test in all cases: NCI anticancer screen, dose series, 48 h
786-0 renal = system: 786-0 renal
A498 renal = system: A498 renal
A549 NSCLC = system: A549 NSCLC
ACHN renal = system: ACHN renal
BT-549 breast = system: BT-549 breast
CAKI-1 renal = system: CAKI-1 renal
COLO 205 colon = system: COLO 205 colon
DU-145 prostate = system: DU-145 prostate
EKVX NSCLC = system: EKVX NSCLC
HCC-2998 colon = system: HCC-2998 colon
HCT-116 colon = system: HCT-116 colon
HCT-15 colon = system: HCT-15 colon
HL-60(TB) leukemia = system: HL-60(TB) leukemia
HOP-62 NSCLC = system: HOP-62 NSCLC
HOP-92 NSCLC = system: HOP-92 NSCLC
HS 578T breast = system: HS 578T breast
HT29 colon = system: HT29 colon
IGROV1 ovarian = system: IGROV1 ovarian
K-562 leukemia = system: K-562 leukemia
KM12 colon = system: KM12 colon
LOX IMVI melanoma = system: LOX IMVI melanoma
M14 melanoma = system: M14 melanoma
MALME-3M melanoma = system: MALME-3M melanoma
MCF7 breast = system: MCF7 breast
MDA-MB-231 breast = system: MDA-MB-231 breast
MDA-MB-435 = system: MDA-MB-435
MOLT-4 leukemia = system: MOLT-4 leukemia
NCI-H226 lung = system: NCI-H226 lung
NCI-H23 lung = system: NCI-H23 lung
NCI-H460 lung = system: NCI-H460 lung
NCI-H522 lung = system: NCI-H522 lung
NCI/ADR-RES ovarian = system: NCI/ADR-RES ovarian
OVCAR-3 ovarian = system: OVCAR-3 ovarian
OVCAR-4 ovarian = system: OVCAR-4 ovarian
OVCAR-5 ovarian = system: OVCAR-5 ovarian
OVCAR-8 ovarian = system: OVCAR-8 ovarian
PC-3 prostate = system: PC-3 prostate
RPMI-8226 leukemia = system: RPMI-8226 leukemia
RXF 393 renal = system: RXF 393 renal
SF-268 CNS = system: SF-268 CNS
SF-295 CNS = system: SF-295 CNS
SF-539 CNS = system: SF-539 CNS
SK-MEL-2 melanoma = system: SK-MEL-2 melanoma
SK-MEL-28 melanoma = system: SK-MEL-28 melanoma
SK-MEL-5 melanoma = system: SK-MEL-5 melanoma
SK-OV-3 ovarian = system: SK-OV-3 ovarian
SN12C renal = system: SN12C renal
SNB-19 CNS = system: SNB-19 CNS
SNB-75 CNS = system: SNB-75 CNS
SR leukemia = system: SR leukemia
SW-620 colon = system: SW-620 colon
T-47D breast = system: T-47D breast
TK-10 renal = system: TK-10 renal
U251 CNS = system: U251 CNS
UACC-257 melanoma = system: UACC-257 melanoma
UACC-62 melanoma = system: UACC-62 melanoma
UO-31 renal = system: UO-31 renal
CCRF-CEM leukemia = system: CCRF-CEM leukemia

## Oc1c(Br)cc(Br)c2ccc(Cn3cc(-c4ccc(C(F)(F)F)cc4)nn3)nc12
786-0 renal
  GI50: 1.92 µM
  TGI: 4.54 µM
A498 renal
  GI50: 3.36 µM
  TGI: 13.8 µM
A549 NSCLC
  GI50: 16.6 µM
  TGI: 34.3 µM
ACHN renal
  GI50: 1.38 µM
  TGI: 2.7 µM
BT-549 breast
  GI50: 2.16 µM
  TGI: 5.98 µM
CAKI-1 renal
  GI50: 1.27 µM
  TGI: 2.69 µM
COLO 205 colon
  GI50: 1.28 µM
  TGI: 2.93 µM
DU-145 prostate
  GI50: 1.67 µM
  TGI: 3.19 µM
EKVX NSCLC
  GI50: 7.43 µM
  TGI: 20.9 µM
HCC-2998 colon
  GI50: 8.87 µM
  TGI: 22.6 µM
HCT-116 colon
  GI50: 0.586 µM
  TGI: 2.05 µM
HCT-15 colon
  GI50: 1.56 µM
  TGI: 3.46 µM
HL-60(TB) leukemia
  GI50: 0.674 µM
  TGI: 3.06 µM
HOP-62 NSCLC
  GI50: 15.6 µM
  TGI: 30.8 µM
HOP-92 NSCLC
  GI50: 1.52 µM
  TGI: 4.4 µM
HS 578T breast
  GI50: 3.03 µM
  TGI: 10.3 µM
HT29 colon
  GI50: 1.92 µM
  TGI: 4.55 µM
IGROV1 ovarian
  GI50: 1.49 µM
  TGI: 3.25 µM
K-562 leukemia
  GI50: 0.41 µM
  TGI: 11.8 µM
KM12 colon
  GI50: 8.84 µM
  TGI: 21.4 µM
LOX IMVI melanoma
  GI50: 0.379 µM
  TGI: 1.52 µM
M14 melanoma
  GI50: 1.81 µM
  TGI: 4.44 µM
MALME-3M melanoma
  GI50: 1.65 µM
  TGI: 3.67 µM
MCF7 breast
  GI50: 0.532 µM
  TGI: 2.36 µM
MDA-MB-231 breast
  GI50: 2.06 µM
  TGI: 5.02 µM
MDA-MB-435
  GI50: 1.85 µM
  TGI: 4.39 µM
MOLT-4 leukemia
  GI50: 1.01 µM
  TGI: 5.76 µM
NCI-H226 lung
  GI50: 4.46 µM
  TGI: 19.7 µM
NCI-H23 lung
  GI50: 2.31 µM
  TGI: 6.18 µM
NCI-H460 lung
  GI50: 19 µM
  TGI: 37.3 µM
NCI-H522 lung
  GI50: 1.08 µM
  TGI: 3.01 µM
NCI/ADR-RES ovarian
  GI50: 21.1 µM
  TGI: 71.7 µM
OVCAR-3 ovarian
  GI50: 1.42 µM
  TGI: 2.8 µM
OVCAR-4 ovarian
  GI50: 1.45 µM
  TGI: 3.11 µM
OVCAR-5 ovarian
  GI50: 3.45 µM
  TGI: 12.9 µM
OVCAR-8 ovarian
  GI50: 2.62 µM
  TGI: 7.76 µM
PC-3 prostate
  GI50: 2.9 µM
  TGI: 12.4 µM
RPMI-8226 leukemia
  GI50: 1.59 µM
  TGI: 5.6 µM
RXF 393 renal
  GI50: 0.662 µM
  TGI: 2.17 µM
SF-268 CNS
  GI50: 4.7 µM
  TGI: 17.9 µM
SF-295 CNS
  GI50: 17.2 µM
  TGI: 31.2 µM
SF-539 CNS
  GI50: 1.59 µM
  TGI: 3.01 µM
SK-MEL-2 melanoma
  GI50: 2.73 µM
  TGI: 9.67 µM
SK-MEL-28 melanoma
  GI50: 1.7 µM
  TGI: 3.44 µM
SK-MEL-5 melanoma
  GI50: 3.16 µM
  TGI: 11.7 µM
SK-OV-3 ovarian
  GI50: 17.8 µM
  TGI: 32.1 µM
SN12C renal
  GI50: 3.53 µM
  TGI: 14.4 µM
SNB-19 CNS
  GI50: 11.1 µM
  TGI: 24.5 µM
SNB-75 CNS
  GI50: 1.49 µM
  TGI: 8.04 µM
SR leukemia
  GI50: 0.794 µM
  TGI: 5.86 µM
SW-620 colon
  GI50: 0.548 µM
  TGI: 2.13 µM
T-47D breast
  GI50: 1.72 µM
  TGI: 5.84 µM
TK-10 renal
  GI50: 1.82 µM
  TGI: 3.79 µM
U251 CNS
  GI50: 4.42 µM
  TGI: 16.5 µM
UACC-257 melanoma
  GI50: 1.31 µM
  TGI: 3.19 µM
UACC-62 melanoma
  GI50: 3.4 µM
  TGI: 14.4 µM
UO-31 renal
  GI50: 1.68 µM
  TGI: 5.03 µM

## CC[C@H](C)[C@H](NC(=O)c1ccccn1)C(=O)N(C)[C@H](C[C@@H](OC(C)=O)c1nc(C(=O)N[C@@H](Cc2ccccc2)C[C@H](C)C(=O)OC)cs1)C(C)C
786-0 renal
  GI50: 16.1 µM
  TGI: 59.7 µM
A549 NSCLC
  GI50: 48.9 µM
  TGI: > 100 µM
ACHN renal
  GI50: 27.3 µM
  TGI: > 100 µM
BT-549 breast
  GI50: 11.4 µM
  TGI: 42.5 µM
CAKI-1 renal
  GI50: 30.6 µM
  TGI: > 100 µM
CCRF-CEM leukemia
  GI50: 21.5 µM
  TGI: > 100 µM
COLO 205 colon
  GI50: 16.8 µM
  TGI: 42 µM
DU-145 prostate
  GI50: 34.7 µM
  TGI: > 100 µM
EKVX NSCLC
  GI50: 35.3 µM
  TGI: > 100 µM
HCC-2998 colon
  GI50: 19.1 µM
  TGI: > 100 µM
HCT-116 colon
  GI50: 11.2 µM
  TGI: 50.3 µM
HCT-15 colon
  GI50: 21.7 µM
  TGI: > 100 µM
HL-60(TB) leukemia
  GI50: 7.89 µM
  TGI: 54 µM
HOP-62 NSCLC
  GI50: 26.1 µM
  TGI: > 100 µM
HOP-92 NSCLC
  GI50: 6.88 µM
  TGI: 80.9 µM
HS 578T breast
  GI50: 12.8 µM
  TGI: 45.7 µM
HT29 colon
  GI50: 26.3 µM
  TGI: > 100 µM
IGROV1 ovarian
  GI50: 11.6 µM
  TGI: > 100 µM
K-562 leukemia
  GI50: 17.5 µM
  TGI: > 100 µM
KM12 colon
  GI50: 8.08 µM
  TGI: > 100 µM
LOX IMVI melanoma
  GI50: 22.3 µM
  TGI: > 100 µM
M14 melanoma
  GI50: 9.25 µM
  TGI: 38.4 µM
MALME-3M melanoma
  GI50: 15.7 µM
  TGI: > 100 µM
MCF7 breast
  GI50: 4.92 µM
  TGI: > 100 µM
MDA-MB-231 breast
  GI50: 15.7 µM
  TGI: 48.2 µM
MDA-MB-435
  GI50: 2.08 µM
  TGI: 5.64 µM
MOLT-4 leukemia
  GI50: 24.7 µM
  TGI: 90.2 µM
NCI-H226 lung
  GI50: 45 µM
  TGI: > 100 µM
NCI-H23 lung
  GI50: 24.6 µM
  TGI: > 100 µM
NCI-H460 lung
  GI50: 18.6 µM
  TGI: 57 µM
NCI-H522 lung
  GI50: 8.93 µM
  TGI: 38.9 µM
NCI/ADR-RES ovarian
  GI50: 25.3 µM
  TGI: > 100 µM
OVCAR-3 ovarian
  GI50: 10.9 µM
  TGI: 40.7 µM
OVCAR-4 ovarian
  GI50: 31.1 µM
  TGI: > 100 µM
OVCAR-5 ovarian
  GI50: 27.9 µM
  TGI: > 100 µM
OVCAR-8 ovarian
  GI50: 33.3 µM
  TGI: > 100 µM
PC-3 prostate
  GI50: 23.6 µM
  TGI: > 100 µM
RPMI-8226 leukemia
  GI50: 6.98 µM
  TGI: > 100 µM
RXF 393 renal
  GI50: 7.56 µM
  TGI: 60.4 µM
SF-268 CNS
  GI50: 29 µM
  TGI: > 100 µM
SF-295 CNS
  GI50: 21.7 µM
  TGI: > 100 µM
SF-539 CNS
  GI50: 17.1 µM
  TGI: 50.8 µM
SK-MEL-2 melanoma
  GI50: 12.8 µM
  TGI: > 100 µM
SK-MEL-28 melanoma
  GI50: 35.1 µM
  TGI: > 100 µM
SK-MEL-5 melanoma
  GI50: 10.7 µM
  TGI: 42.5 µM
SK-OV-3 ovarian
  GI50: 33.4 µM
  TGI: > 100 µM
SN12C renal
  GI50: 30 µM
  TGI: > 100 µM
SNB-19 CNS
  GI50: 33.8 µM
  TGI: > 100 µM
SNB-75 CNS
  GI50: 5.73 µM
  TGI: 98 µM
SR leukemia
  GI50: 3.88 µM
  TGI: 81 µM
SW-620 colon
  GI50: 23.1 µM
  TGI: > 100 µM
T-47D breast
  GI50: 43 µM
  TGI: > 100 µM
TK-10 renal
  GI50: 54.1 µM
  TGI: > 100 µM
U251 CNS
  GI50: 28.5 µM
  TGI: > 100 µM
UACC-257 melanoma
  GI50: 36.8 µM
  TGI: > 100 µM
UACC-62 melanoma
  GI50: 4.56 µM
  TGI: > 100 µM
UO-31 renal
  GI50: 18 µM
  TGI: > 100 µM
